Assay results: the supplement of paper PMC10307832

Key:
Experiment in all cases: relative viability (nuclei count vs DMSO), 5 days (fraction); higher = more cells survive
[1] = compound: Cn1c(Nc2ccc(C(F)(F)F)cc2)nc2cc(Oc3ccnc(-c4ncc(C(F)(F)F)[nH]4)c3)ccc21 [RAF265] + CC(=O)Nc1cccc(-n2c(=O)n(C3CC3)c(=O)c3c(Nc4ccc(I)cc4F)n(C)c(=O)c(C)c32)c1 [Trametinib] (partner 0.02 µM)
How it was run: (§1)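 Relative viability divides the nuclei count in treated wells by that in vehicle wells. Lung cancer cell lines were seeded in 1536-well plates, dosed by pin tool the next day, and fixed and stained after 5 days in one step with final 0.05% Triton X-100, 1% formaldehyde and 1 ug/ml Hoechst. Dosing was a single drug or a fixed anchor-drug dose plus five library-drug doses (not always all listed) in √10 steps, and values are medians of duplicate plates imaged at 4×.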

[2] = compound: C1=CC=C2C(=C1)C=CC(=C2SSC3=C(C=CC4=CC=CC=C43)O)O [IPA-3] + Nc1ncn([C@H]2C[C@H](O)[C@@H](CO)O2)c(=O)n1 [Decitabine] (partner 2 µM)
How it was run: as §1

[3] = compound: Cn1c(Nc2ccc(C(F)(F)F)cc2)nc2cc(Oc3ccnc(-c4ncc(C(F)(F)F)[nH]4)c3)ccc21 [RAF265] + CC(C)C[C@H](NC(=O)[C@H](Cc1ccccc1)NC(=O)c1cnccn1)B(O)O [Bortezomib] (partner 0.002 µM)
How it was run: as §1

[4] = compound: Cc1ccc(-n2nc(C(C)(C)C)cc2NC(=O)Nc2ccc(OCCN3CCOCC3)c3ccccc23)cc1 [Doramapimod] + Cc1nc(Nc2ncc(C(=O)Nc3c(C)cccc3Cl)s2)cc(N2CCN(CCO)CC2)n1 [Dasatinib] (partner 0.075 µM)
How it was run: as §1

| Cell Line | relative viability ([1]; first compound 0.01 µM) | relative viability ([1]; first compound 0.03162 µM) | relative viability ([1]; first compound 0.1 µM) | relative viability ([1]; first compound 0.3162 µM) | relative viability ([1]; first compound 1 µM) | relative viability ([2]; first compound 0.2 µM) | relative viability ([2]; first compound 0.6325 µM) | relative viability ([2]; first compound 2 µM) | relative viability ([2]; first compound 6.325 µM) | relative viability ([2]; first compound 20 µM) | relative viability ([3]; first compound 0.01 µM) | relative viability ([3]; first compound 0.03162 µM) | relative viability ([3]; first compound 0.1 µM) | relative viability ([3]; first compound 0.3162 µM) | relative viability ([3]; first compound 1 µM) | relative viability ([4]; first compound 0.02 µM) | relative viability ([4]; first compound 0.06325 µM) | relative viability ([4]; first compound 0.2 µM) | relative viability ([4]; first compound 0.6325 µM) | relative viability ([4]; first compound 2 µM) |
| --- | --- | --- | --- | --- | --- | --- | --- | --- | --- | --- | --- | --- | --- | --- | --- | --- | --- | --- | --- | --- |
| SK-LU-1 | 0.559 | 0.419 | 0.393 | 0.274 | 0.257 | 0.708 | 0.497 | 0.658 | 0.689 | 0.651 | 1.18 | 1.08 | 1.09 | 0.453 | 0.512 | 0.16 | 0.182 | 0.195 | 0.204 | 0.218 |
| LOU-NH91 | 0.837 | 0.756 | 0.717 | 0.71 | 0.636 | 0.821 | 0.856 | 0.815 | 0.82 | 0.888 | 0.542 | 0.465 | 0.521 | 0.596 | 0.521 | 0.559 | 0.535 | 0.599 | 0.671 | 0.365 |
| LXF-289 | 0.667 | 0.692 | 0.551 | 0.488 | 0.339 | 0.368 | 0.368 | 0.345 | 0.37 | 0.422 | 0.996 | 0.988 | 0.969 | 0.763 | 0.796 | 0.229 | 0.216 | 0.207 | 0.252 | 0.247 |
| NCI-H1299 | – | – | – | – | – | – | – | – | – | – | 1.04 | 1.02 | 1.05 | 0.969 | 0.741 | – | – | – | – | – |
| HARA | 0.771 | 0.484 | 0.673 | 0.353 | 0.308 | 0.474 | 0.517 | 0.544 | 0.578 | 0.621 | 1.12 | 1.1 | 1.1 | 0.809 | 0.801 | 0.194 | 0.274 | 0.277 | – | 0.199 |
| LU99A | 0.551 | 0.469 | 0.314 | 0.288 | 0.21 | 0.974 | 0.813 | 0.881 | 0.867 | 0.879 | 1.18 | 1.11 | 0.697 | 0.605 | 0.409 | 0.488 | 0.498 | 0.413 | 0.612 | 0.552 |
| 201T | 0.781 | 0.696 | 0.717 | 0.748 | 0.716 | 0.888 | 0.861 | 0.839 | 0.868 | 0.947 | 1.08 | 1.1 | 1.07 | 1.11 | 1.1 | 0.611 | 0.571 | 0.49 | 0.598 | 0.517 |
| HCC-827 | 0.592 | 0.483 | 0.544 | – | 0.362 | 0.359 | 0.34 | 0.33 | 0.312 | 0.327 | 1.1 | 1.08 | 1.08 | – | 0.869 | 0.272 | 0.238 | 0.286 | 0.355 | 0.142 |
| NCI-H1666 | 0.89 | 0.852 | 0.784 | 0.839 | 0.656 | 0.661 | 0.759 | 0.737 | 0.868 | 0.706 | 1.09 | 0.809 | 0.935 | 0.977 | 0.595 | 0.889 | 0.881 | 0.876 | 1.14 | 0.87 |
| NCI-H1915 | 0.327 | 0.275 | 0.23 | 0.151 | 0.1 | 0.277 | 0.279 | 0.248 | 0.262 | 0.245 | 0.96 | 0.95 | 0.887 | 0.816 | 0.417 | 0.304 | 0.327 | 0.316 | 0.354 | 0.307 |
| NCI-H2009 | 0.29 | 0.303 | 0.189 | 0.188 | 0.165 | 0.38 | 0.353 | 0.444 | 0.395 | 0.312 | 1.05 | 0.981 | 0.905 | 0.899 | 0.657 | 0.345 | 0.382 | 0.422 | 0.529 | 0.297 |
| ChaGo-K-1 | 0.903 | 0.965 | 0.859 | 0.776 | 0.632 | 0.536 | 0.479 | 0.503 | 0.509 | 0.487 | 0.92 | 1.08 | 1.12 | 1.03 | 0.662 | 0.51 | 0.583 | 0.526 | 0.566 | 0.586 |
| COR-L 105 | 0.47 | 0.428 | 0.429 | 0.38 | 0.348 | 0.652 | 0.609 | 0.657 | 0.66 | 0.649 | 0.902 | 0.771 | 0.647 | 0.442 | 0.56 | 0.316 | 0.305 | 0.302 | 0.376 | 0.367 |
| NCI-H2170 | 0.928 | 0.86 | 0.792 | 0.666 | 0.56 | 0.462 | 0.421 | 0.424 | 0.445 | 0.439 | – | – | – | – | – | 0.614 | 0.616 | 0.7 | 0.896 | 0.594 |
| A549 | – | – | – | – | – | 0.379 | 0.278 | 0.128 | 0.274 | 0.179 | – | – | – | – | – | – | – | – | – | – |
